Source: ChEMBL document CHEMBL5380855, “Acetyl-Click Screening Platform Identifies Small-Molecule Inhibitors of Histone Acetyltransferase 1 (HAT1)” (J Med Chem, 2023)
Calls of active or inactive are those of the source. No cut-off for these calls is given here.

Experiments:
[1] = target: T1, HAT1/Rbap46 (Homo sapiens) (UniProt Q16576+O14929); assay: (§1) Inhibition of C-terminal FLAG tagged full length human HAT1/Rbap46 transfected in HEK293F cells using histone H4 peptide as substrate and 4-pentynoyl-CoA as cofactor preincubated for 10 mins followed by 4-pentynoyl-CoA addition and measured after 1 hr by amplex red dye based fluorescence analysis relative to control; type: cell-based; design: concentration or dose not given beside the values; conditions: time 70.0 min
[2] = target: T1, HAT1/Rbap46 (Homo sapiens); assay: as §1, with “cofactor at 100 uM” for “cofactor”; type: cell-based; conditions: time 70.0 min
[3] = target: T1, HAT1/Rbap46 (Homo sapiens); assay: as §1, with “cofactor at 10 uM” for “cofactor”, “to 4 hrs” for “hr”, “analysis” for “analysis relative to control”; type: cell-based; conditions: time 70-250 min
[4] = target: T1, HAT1/Rbap46 (Homo sapiens); assay: as §1, with “cofactor at 1 to 100 uM” for “cofactor”; type: cell-based; conditions: dose 1-100 µM, time 70.0 min
HCC1806 = assay: Cytotoxicity against human HCC1806 cells assessed as inhibition of cell growth incubated for 48 hrs by celltiter blue analysis; type: functional, cell-based

T1 sequence (O14929 2-419 partner limits assumed): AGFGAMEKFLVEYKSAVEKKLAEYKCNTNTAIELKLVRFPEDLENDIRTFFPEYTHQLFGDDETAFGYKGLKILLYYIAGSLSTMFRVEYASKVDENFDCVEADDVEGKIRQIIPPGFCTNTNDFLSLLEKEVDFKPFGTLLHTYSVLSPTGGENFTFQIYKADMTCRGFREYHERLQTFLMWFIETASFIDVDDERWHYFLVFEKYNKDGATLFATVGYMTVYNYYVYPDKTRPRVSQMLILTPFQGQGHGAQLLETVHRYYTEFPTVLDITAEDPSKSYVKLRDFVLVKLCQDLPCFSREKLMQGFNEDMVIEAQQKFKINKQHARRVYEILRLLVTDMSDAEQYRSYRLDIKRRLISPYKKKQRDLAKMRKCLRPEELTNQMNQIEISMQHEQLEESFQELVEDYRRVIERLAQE
T1 sequence (Q16576 2-425 limits assumed): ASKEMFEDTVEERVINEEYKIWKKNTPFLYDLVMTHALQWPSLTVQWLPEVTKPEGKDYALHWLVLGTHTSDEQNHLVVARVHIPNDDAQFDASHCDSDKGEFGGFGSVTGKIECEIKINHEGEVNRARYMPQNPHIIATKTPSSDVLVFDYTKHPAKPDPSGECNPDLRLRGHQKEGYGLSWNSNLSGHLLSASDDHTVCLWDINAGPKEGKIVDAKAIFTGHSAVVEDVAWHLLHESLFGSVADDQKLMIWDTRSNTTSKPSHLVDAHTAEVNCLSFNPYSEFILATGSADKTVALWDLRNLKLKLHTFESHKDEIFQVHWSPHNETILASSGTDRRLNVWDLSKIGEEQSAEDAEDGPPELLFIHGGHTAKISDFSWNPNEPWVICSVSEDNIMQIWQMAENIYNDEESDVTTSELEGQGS

inhibition [1] [%]	inhibition [2] [%]	Structure (SMILES)	further results
51		CC(=O)OCCn1c2nc(=O)[nH]c(=O)c-2nc2cc(C)c(C)cc21	
	1	CCc1cc2c(cc1Cl)nc1c(=O)[nH]c(=O)nc-1n2CCOc1ccc(F)cc1	
	11	CCc1cc2c(cc1Cl)nc1c(=O)[nH]c(=O)nc-1n2CCOc1cccc(C(F)(F)F)c1	
	62	CCc1cc2c(cc1Cl)nc1c(=O)[nH]c(=O)nc-1n2CC(C)(C)C	
	12	CCc1cc2c(cc1Cl)nc1c(=O)[nH]c(=O)nc-1n2CCCOc1ccc(C)cc1	
		CC(=O)N[C@@H](CCCCNC(=O)SCCNC(=O)CCNC(=O)[C@H](O)C(C)(C)COP(=O)(O)OP(=O)(O)OC[C@H]1O[C@@H](n2cnc3c(N)ncnc32)[C@H](O)[C@@H]1OP(=O)(O)O)C(N)=O	inhibition [3]: inactive
25		CC(=O)Nc1cc2[nH]c3nc(=O)n(CC4CCCCC4)c(=O)c-3nc2cc1C	
	60	CCc1cc2c(cc1Cl)nc1c(=O)[nH]c(=O)nc-1n2CCOCC1CCNCC1	
69		Oc1ccccc1C1=NC2c3ccccc3-c3ccccc3C2N1 (configuration not stated)	
37	17	O=c1nc2n(CCN(CO)CO)c3cc(Cl)c(Cl)cc3nc-2c(=O)[nH]1	
66.4		Cc1cc2cc3c(=O)[nH]c(=O)cc-3n(CC(O)C(O)C(O)CO)c2cc1C (configuration not stated)	
	26	CCc1cc2c(cc1Cl)nc1c(=O)[nH]c(=O)nc-1n2CCOCc1ccc(C#N)cc1	
	9	CCc1cc2c(cc1Cl)nc1c(=O)[nH]c(=O)nc-1n2CCCc1ccc(Br)cc1	
	23	CCc1cc2c(cc1Cl)nc1c(=O)[nH]c(=O)nc-1n2CCOCc1cccc(C(F)(F)F)c1	
	17	CCc1cc2c(cc1Cl)nc1c(=O)[nH]c(=O)nc-1n2CCOc1cccc(F)c1	
	19	CCc1cc2c(cc1Cl)nc1c(=O)[nH]c(=O)nc-1n2CCCOc1cccc(C(F)(F)F)c1	
		Cc1cc2nc3c(=O)[nH]c(=O)nc-3n(C[C@H](O)[C@H](O)[C@H](O)COP(=O)(O)O)c2cc1C	inhibition [4]: inactive
	17	CCc1cc2c(cc1Cl)nc1c(=O)[nH]c(=O)nc-1n2CCOCc1ccc(-c2ccccc2)cc1	
72.2		O=C(O)Cc1ccc(/N=N/c2c(O)c(C(=O)O)cc3ccccc23)cc1	
	8	CCc1cc2c(cc1Cl)nc1c(=O)[nH]c(=O)nc-1n2CCOc1ccc(Br)cc1	
28		CCC(=O)Nc1cc2[nH]c3nc(=O)n(Cc4ccccc4)c(=O)c-3nc2cc1C	
64	61	CCc1cc2nc3c(=O)[nH]c(=O)nc-3n(C[C@H](O)[C@H](O)[C@H](O)CO)c2cc1Cl	
	20	CCc1cc2c(cc1Cl)nc1c(=O)[nH]c(=O)nc-1n2CCOc1ccc(C)cc1	
	7	Cc1cc2nc3c(=O)[nH]c(=O)nc-3n(C[C@H](O)[C@H](O)[C@H](O)CO)c2cc1N(C)C	inhibition (HCC1806): Active
